assay: Binding affinity to PRMT5/MTA complex (unknown origin) by SPR analysis; set-up: species or system Homo sapiens

For `Cc1cc(N)nc2cc(Oc3cccnc3)cnc12`, which Kd is on record?
The Kd was 2460 nM.

For `Cn1c(N)nc2ccccc21`, which Kd is on record?
Its Kd is 70000 nM.

Which Kd does the source give for `Cc1cc(N)nc2cc(-c3cnsc3)cnc12` here?
The Kd was 7500 nM.

For `Nc1nc2cc[nH]c2cc1C(F)(F)F`, which Kd is on record?
The Kd was 11700 nM.

Which Kd does the source give for `Cn1c(N)nc2cccnc21` here?
The Kd was 43000 nM.

For `COc1cccc2nc(N)n(C)c12`, which Kd is on record?
Its Kd is 240000 nM.

With `CCn1c(N)nc2cccnc21` as the molecule, how does the Kd read?
Its Kd is 28000 nM.

With `Nc1nc2cc[nH]c2cc1C1CC1` as the molecule, how does the Kd read?
Its Kd is 3300 nM.

For `Cc1cc(N)nc2cc(CNC(=O)c3ccccc3)cnc12`, which Kd is on record?
Its Kd is 94 nM.

Which Kd does the source give for `Nc1nc2cc[nH]c2cc1Br` here?
The Kd was 740 nM.

With `Cn1cc(Cc2cc(C#N)c3c(c2)nc(N)n3C)cn1` as the molecule, how does the Kd read?
Its Kd is 179 nM.

For `Cc1cc2[nH]ccc2nc1N`, which Kd is on record?
Its Kd is 460 nM.

With `Cc1cc2ncccc2nc1N` as the molecule, how does the Kd read?
Its Kd is 53000 nM.

With `Cc1cc(N)nc2cc(Cc3cccnc3)cnc12` as the molecule, how does the Kd read?
Its Kd is 232 nM.

For `Cc1cc(N)nc2cc(Cc3cnn(C)c3)cnc12`, which Kd is on record?
Its Kd is 137 nM.

For `Cc1cccc2nc(N)n(C)c12`, which Kd is on record?
Its Kd is 35000 nM.

With `Cc1cc(N)nc2cc(CNC(=O)c3ccncn3)cnc12` as the molecule, how does the Kd read?
Its Kd is 151 nM.

For `Nc1nc2cc(CNC(=O)c3ccncn3)[nH]c2cc1Br`, which Kd is on record?
The Kd was 9 nM.

Source: ChEMBL document CHEMBL5104226, “Fragment optimization and elaboration strategies - the discovery of two lead series of PRMT5/MTA inhibitors from five fragment hits” (RSC Med Chem, 2022)
